In patent US20190234940A1, “METABOLIC RESTRICTION IN CELL-BASED ASSAYS” (priority 2016, published 2019):
Counter-ions that a name gives are not always drawn. Like-named read-outs stand apart in the source and are kept apart here.

Experiments:
CYP1A2 = molecular target: T1, CYP1A2 (Homo sapiens, UniProt P05177); assay: P450-Glo CYP1A2 activity in HBV-infected HepaRG cells; format: cell-based; details: day 11 p.i.
T1 construct: CYP1A2, CYP2C9, and CYP3A4 activity were determined in HBV-infected HepaRG cells; endogenous in cells; host or cells: differentiated HepaRG cells infected with HBV
T1 sequence (P05177 1-516): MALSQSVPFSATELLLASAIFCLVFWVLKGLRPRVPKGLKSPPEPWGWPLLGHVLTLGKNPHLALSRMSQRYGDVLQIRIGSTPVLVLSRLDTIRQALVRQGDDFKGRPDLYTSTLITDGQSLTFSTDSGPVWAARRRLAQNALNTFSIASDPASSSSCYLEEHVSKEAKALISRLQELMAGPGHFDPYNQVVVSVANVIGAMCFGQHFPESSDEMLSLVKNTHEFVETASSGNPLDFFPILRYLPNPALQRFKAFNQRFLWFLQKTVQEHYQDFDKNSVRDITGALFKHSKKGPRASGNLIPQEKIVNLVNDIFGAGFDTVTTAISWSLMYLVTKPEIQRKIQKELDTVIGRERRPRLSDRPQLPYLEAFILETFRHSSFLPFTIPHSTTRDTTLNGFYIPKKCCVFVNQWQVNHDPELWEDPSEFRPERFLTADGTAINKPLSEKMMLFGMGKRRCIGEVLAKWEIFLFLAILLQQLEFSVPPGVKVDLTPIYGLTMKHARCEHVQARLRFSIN

CYP3A4 = molecular target: T2, CYP3A4 (Homo sapiens, UniProt P08684); assay: P450-Glo CYP3A4 activity in HBV-infected HepaRG cells; format: cell-based; details: day 11 p.i.
T2 construct: CYP1A2, CYP2C9, and CYP3A4 activity were determined in HBV-infected HepaRG cells; endogenous in cells; host or cells: differentiated HepaRG cells infected with HBV
T2 sequence (P08684 whole entry): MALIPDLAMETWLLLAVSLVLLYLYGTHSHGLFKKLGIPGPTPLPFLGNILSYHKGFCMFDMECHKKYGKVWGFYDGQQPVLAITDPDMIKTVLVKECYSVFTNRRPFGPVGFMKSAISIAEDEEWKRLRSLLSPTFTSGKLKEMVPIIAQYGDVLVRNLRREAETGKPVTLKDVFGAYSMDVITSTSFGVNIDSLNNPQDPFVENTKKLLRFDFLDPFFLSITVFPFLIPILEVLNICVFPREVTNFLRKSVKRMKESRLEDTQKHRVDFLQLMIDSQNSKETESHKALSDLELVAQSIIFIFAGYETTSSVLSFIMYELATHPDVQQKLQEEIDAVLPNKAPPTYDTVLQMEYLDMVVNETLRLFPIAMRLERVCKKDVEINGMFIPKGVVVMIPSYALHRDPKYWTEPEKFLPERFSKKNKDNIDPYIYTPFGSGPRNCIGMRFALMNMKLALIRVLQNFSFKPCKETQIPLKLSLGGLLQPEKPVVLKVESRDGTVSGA

CYP2C9 [1] = molecular target: T3, CYP2C9 (Homo sapiens, UniProt P11712); assay: P450-Glo CYP2C9 activity in HBV-infected HepaRG cells
T3 sequence (P11712 whole entry): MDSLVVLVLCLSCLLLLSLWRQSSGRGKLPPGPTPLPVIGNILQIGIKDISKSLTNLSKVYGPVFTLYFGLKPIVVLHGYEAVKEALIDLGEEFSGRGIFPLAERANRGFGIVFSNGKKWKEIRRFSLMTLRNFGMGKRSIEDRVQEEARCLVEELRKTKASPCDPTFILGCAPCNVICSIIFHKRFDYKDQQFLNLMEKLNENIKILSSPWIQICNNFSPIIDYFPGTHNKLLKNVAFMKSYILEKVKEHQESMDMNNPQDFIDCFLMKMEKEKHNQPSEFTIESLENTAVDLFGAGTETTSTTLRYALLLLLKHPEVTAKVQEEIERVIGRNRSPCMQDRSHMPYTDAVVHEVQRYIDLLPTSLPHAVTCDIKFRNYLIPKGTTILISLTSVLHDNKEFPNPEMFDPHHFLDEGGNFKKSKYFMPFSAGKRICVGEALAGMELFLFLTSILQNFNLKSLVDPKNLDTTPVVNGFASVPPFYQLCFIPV

CYP2C9 [2] = molecular target: T3, CYP2C9
[3] = ABT 10 or 20 mM 1 h twice, or 0.1 or 0.2 mM twice for 3 days (days 5 and 8 p.i.)
[4] = SKF-525A 100 or 200 μM 1 h twice, or 2 or 20 μM twice for 3 days

Structure (SMILES): Nn1nnc2ccccc21 [ABT, 1-aminobenzotriazole]
- inhibition of CYP1A2 (CYP1A2; [3]): > 90%
- inhibition of CYP3A4 (CYP3A4; [3]): > 90%
- inhibition of CYP2C9 (CYP2C9 [1]; ABT 10 or 20 mM 1 h twice, or 0.1 or 0.2 mM twice for 3 days (days 5 and 8 p.i.), day 11 p.i.): 72%-75%

Structure (SMILES): Cc1nc2c([nH]1)c(=O)n(C)c(=O)n2Cc1ccco1 [furafylline]
- CYP2C9 inhibition (CYP2C9 [1]; furafylline alone, titration): also inhibit

Structure (SMILES): CC(=O)N1CCN(c2ccc(OCC3COC(Cn4ccnc4)(c4ccc(Cl)cc4Cl)O3)cc2)CC1 (stereo not shown) [ketoconazole]
- CYP2C9 inhibition (CYP2C9 [2]): also inhibit

Structure (SMILES): CCCC(C(=O)OCCN(CC)CC)(c1ccccc1)c1ccccc1 [SKF-525A, proadifen hydrochloride]
- CYP1A2 inhibition relative to other CYPs (CYP1A2; [4]): inhibited CYP1A2 less
- CYP3A4 inhibition relative to other CYPs (CYP3A4; [4]): inhibited CYP3A4 better than CYP2C9
